Publication PMC11509018, “Evaluation of the Role of Tanshinone I in an In Vitro System of Charcot-Marie-Tooth Disease Type 2N” (International Journal of Molecular Sciences, 2024)

Target: T1, AlaRS R329H binding to Nrp1 (Homo sapiens, UniProt P49588, R329H)
T1 construct: expressed in transfected cells
T1 sequence (P49588 1-968 R329H): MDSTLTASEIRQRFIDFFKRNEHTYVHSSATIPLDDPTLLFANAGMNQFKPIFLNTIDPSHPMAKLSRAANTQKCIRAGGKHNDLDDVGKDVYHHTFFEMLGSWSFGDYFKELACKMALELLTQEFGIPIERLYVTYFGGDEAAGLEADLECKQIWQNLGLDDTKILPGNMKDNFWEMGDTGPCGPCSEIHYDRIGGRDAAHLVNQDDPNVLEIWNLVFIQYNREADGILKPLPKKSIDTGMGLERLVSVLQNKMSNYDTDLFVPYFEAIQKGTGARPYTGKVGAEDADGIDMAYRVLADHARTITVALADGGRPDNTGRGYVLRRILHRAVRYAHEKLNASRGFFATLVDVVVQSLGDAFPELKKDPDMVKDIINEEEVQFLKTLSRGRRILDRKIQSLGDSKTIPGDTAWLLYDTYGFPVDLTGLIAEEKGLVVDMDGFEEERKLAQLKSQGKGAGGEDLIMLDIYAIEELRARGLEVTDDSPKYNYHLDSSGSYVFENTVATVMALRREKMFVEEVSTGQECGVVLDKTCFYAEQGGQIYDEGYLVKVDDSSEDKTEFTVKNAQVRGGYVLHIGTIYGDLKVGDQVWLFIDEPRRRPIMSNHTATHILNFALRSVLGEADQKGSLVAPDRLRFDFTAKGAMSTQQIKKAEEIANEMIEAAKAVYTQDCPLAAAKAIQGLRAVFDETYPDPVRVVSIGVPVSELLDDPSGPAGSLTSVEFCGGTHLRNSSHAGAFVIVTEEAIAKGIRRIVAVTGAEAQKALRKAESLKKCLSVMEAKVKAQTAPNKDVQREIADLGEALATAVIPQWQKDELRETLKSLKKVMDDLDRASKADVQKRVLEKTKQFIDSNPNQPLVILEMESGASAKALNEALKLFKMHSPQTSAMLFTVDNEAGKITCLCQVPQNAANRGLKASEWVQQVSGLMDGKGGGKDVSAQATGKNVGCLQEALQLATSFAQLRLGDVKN
Assay: Co-IP of HA-AlaRS mutant with Nrp1 in transfected cells
Assay type: cell-based
Conditions: 20 µM Tanshinone I for 24 h, ImageJ, average of three repeats

## Cc1coc2c1C(=O)C(=O)c1c-2ccc2c(C)cccc12 [Tanshinone I]
  Mean density band (R329H), relative quantification of AlaRS mutant immunoprecipitated: 0.50
